Like-named read-outs stand apart in the source and are kept apart here.
Assays:
Assay type in all cases: in vivo
Pyricularia oryzae = test: whole plant or invertebrate; conditions: foliar, 96 h
[1] = tested on: Erysiphe graminis f.sp. tritici; test: Erysiphe graminis f.sp. tritici (wheat powdery mildew) leaf disk assay; conditions: Blumeria graminis, foliar, 96 h, preventive, four days after inoculation, read-out: control of fungal infection, Erysiphe graminis fsp. tritici
[2] = tested on: Puccinia recondita f.sp. tritici; test: Puccinia recondita f.sp. tritici (wheat brown rust) leaf disk assay; conditions: foliar, 216 h, preventive, nine days after inoculation, read-out: control of fungal infection, Puccinia recondita f.sp. tritici
Aedes aegypti = Aedes aegypti (Yellow fever mosquito) larvae test; conditions: 48 h
[3] = read-out: control of fungal infection, Pyricularia oryzae (at least 60% list)
[4] = read-out: control of fungal infection, Pyricularia oryzae (at least 80% list)

Clc1cc(Br)ccc1OC1C[C@H]2CC[C@@H](C1)N2c1ncnc2sccc12 (stereo partly drawn) [Example 1.28]
pest or weed control at 200 ppm (Pyricularia oryzae; [3]): ≥ 60%

Cc1nn(C)c2nccc(N3[C@@H]4CC[C@H]3CC(Oc3ccc(Cl)cc3)C4)c12 (stereo partly drawn) [Example 1.138]
pest or weed control at 200 ppm (Pyricularia oryzae; [3]): ≥ 60%

Fc1ccc(OC2C[C@H]3CC[C@@H](C2)N3c2ncnc3sccc23)cc1F (stereo partly drawn) [Example 2.18]
pest or weed control at 200 ppm (Pyricularia oryzae; [3]): ≥ 60%

Fc1ccc(F)c(OC2C[C@H]3CC[C@@H](C2)N3c2ncnc3sccc23)c1 (stereo partly drawn) [Example 2.25]
pest or weed control at 200 ppm [1]: ≥ 80% | pest or weed control at 200 ppm (Pyricularia oryzae; [3]): ≥ 60%

O=C(c1ccccc1)c1ccc(OC2C[C@H]3CC[C@@H](C2)N3c2ncnc3sccc23)cc1 (stereo partly drawn) [Example 2.39]
pest or weed control at 200 ppm (Pyricularia oryzae; [3]): ≥ 60%

Fc1ccc(OC2C[C@H]3CC[C@@H](C2)N3c2ncnc3sccc23)cc1C(F)(F)F (stereo partly drawn) [Example 2.52]
pest or weed control at 200 ppm (Pyricularia oryzae; [3]): ≥ 60%

FC(F)(F)c1cccc(OC2C[C@H]3CC[C@@H](C2)N3c2ncnc3sccc23)n1 (stereo partly drawn) [Example 2.60]
pest or weed control at 200 ppm [1]: ≥ 80% | pest or weed control at 200 ppm (Pyricularia oryzae; [3]): ≥ 60% | pest or weed control at 200 ppm [2]: ≥ 80%

O=c1oc2cc(OC3C[C@H]4CC[C@@H](C3)N4c3ncnc4sccc34)ccc2s1 (stereo partly drawn) [Example 2.69]
pest or weed control at 200 ppm (Pyricularia oryzae; [3]): ≥ 60%

Cc1csc2c(N3[C@@H]4CC[C@H]3CC(Oc3ccc(C(F)(F)F)cn3)C4)ncnc12 (stereo partly drawn) [Example 2.81]
pest or weed control at 200 ppm (Pyricularia oryzae; [3]): ≥ 60%

FC(F)(F)c1ccnc(OC2C[C@H]3CC[C@@H](C2)N3c2ncnc3ccccc23)c1 (stereo partly drawn) [Example 2.84]
pest or weed control at 200 ppm [1]: ≥ 80% | pest or weed control at 200 ppm (Pyricularia oryzae; [3]): ≥ 60% | pest or weed control at 200 ppm [2]: ≥ 80%

CSc1nccc(N2[C@@H]3CC[C@H]2CC(Oc2cccc(C(F)(F)F)n2)C3)n1 (stereo partly drawn) [Example 2.98]
pest or weed control at 200 ppm (Pyricularia oryzae; [3]): ≥ 60%

CCc1ncnc(N2[C@@H]3CC[C@H]2CC(Oc2ccc4c(c2)OCO4)C3)c1Cl (stereo partly drawn) [Example 2.138]
pest or weed control at 2 ppm (Aedes aegypti): ≥ 80%

CCc1ncnc(N2[C@@H]3CC[C@H]2CC(Oc2c(F)c(F)c(F)c(F)c2F)C3)c1Cl (stereo partly drawn) [Example 2.150]
pest or weed control at 2 ppm (Aedes aegypti): ≥ 80%

Cc1nn(C)c2nccc(N3[C@@H]4CC[C@H]3CC(Oc3ccc(Oc5ccc(C(F)(F)F)cn5)cc3)C4)c12 (stereo partly drawn) [Example 2.160]
pest or weed control at 200 ppm (Pyricularia oryzae; [3]): ≥ 60%

CCc1ncnc(N2[C@@H]3CC[C@H]2CC(Oc2ccc4sc(=O)oc4c2)C3)c1Cl (stereo partly drawn) [Example 2.177]
pest or weed control at 200 ppm (Pyricularia oryzae; [3]): ≥ 60%

FC(F)(F)c1ccnc(OC2C[C@H]3CC[C@@H](C2)N3c2ccnc3c(Cl)cccc23)c1 (stereo partly drawn) [Example 2.195]
pest or weed control at 200 ppm (Pyricularia oryzae; [3]): ≥ 60%

Cn1cc(C(=O)N2[C@@H]3CC[C@H]2CC(Oc2cc(C(F)(F)F)ccn2)C3)c(C(F)(F)F)c1 (stereo partly drawn) [Example 2.219]
pest or weed control at 200 ppm (Pyricularia oryzae; [3]): ≥ 60%

Cn1cc(C(=O)N2[C@@H]3CC[C@H]2CC(Oc2cccc(C(F)(F)F)n2)C3)c(C(F)(F)F)c1 (stereo partly drawn) [Example 2.221]
pest or weed control at 200 ppm (Pyricularia oryzae; [3]): ≥ 60%

CCc1ncnc(N2C3CCC2CC(=CC(=O)Nc2ccc(Cl)cc2)C3)c1Cl [Example 3.11]
pest or weed control at 200 ppm (Pyricularia oryzae; [3]): ≥ 60% | pest or weed control at 200 ppm [2]: ≥ 80%

COc1cc(OCC=C2CC3CCC(C2)N3c2ncnc3sccc23)ccc1Cl [Example 3.24]
pest or weed control at 200 ppm (Pyricularia oryzae; [4]): ≥ 80% | pest or weed control at 200 ppm [2]: ≥ 80%

CCCNC(=O)C=C1CC2CCC(C1)N2c1ncnc2sccc12 [Example 3.31]
pest or weed control at 200 ppm (Pyricularia oryzae; [4]): ≥ 80% | pest or weed control at 200 ppm [2]: ≥ 80%

CCCCNC1C[C@H]2CC[C@@H](C1)N2c1ncnc2sccc12 (stereo partly drawn) [Example 4.9]
pest or weed control at 200 ppm (Pyricularia oryzae; [4]): ≥ 80%

c1ccc(CNC2C[C@H]3CC[C@@H](C2)N3c2ncnc3sccc23)cc1 (stereo partly drawn) [Example 4.10]
pest or weed control at 200 ppm (Pyricularia oryzae; [4]): ≥ 80%

CCc1ncnc(N2C3CCC2CC(=NOCc2cc(F)cc(F)c2)C3)c1Cl [Example 5.57]
pest or weed control at 200 ppm [1]: ≥ 80% | pest or weed control at 200 ppm (Pyricularia oryzae; [4]): ≥ 80% | pest or weed control at 200 ppm [2]: ≥ 80%

CCc1ncnc(C(C)c2ncnc(N3C4CCC3CC(=NOc3ncc(C(F)(F)F)cc3Cl)C4)c2Cl)c1Cl (stereo not drawn) [Example 5.124]
pest or weed control at 200 ppm (Pyricularia oryzae; [3]): ≥ 60%

Cc1cc(C)cc(CON=C2CC3CCC(C2)N3c2ncnc3sccc23)c1 [Example 5.156]
pest or weed control at 200 ppm [1]: ≥ 80% | pest or weed control at 200 ppm (Pyricularia oryzae; [3]): ≥ 60% | pest or weed control at 200 ppm [2]: ≥ 80%

c1ccc(Oc2cccc(CON=C3CC4CCC(C3)N4c3ncnc4sccc34)c2)cc1 [Example 5.173]
pest or weed control at 200 ppm [1]: ≥ 80% | pest or weed control at 200 ppm (Pyricularia oryzae; [3]): ≥ 60% | pest or weed control at 200 ppm (Pyricularia oryzae; [4]): ≥ 80% | pest or weed control at 200 ppm [2]: ≥ 80%

CCCCOCON=C1CC2CCC(C1)N2c1ncnc2sccc12 [Example 5.178]
pest or weed control at 200 ppm [1]: ≥ 80% | pest or weed control at 200 ppm (Pyricularia oryzae; [3]): ≥ 60% | pest or weed control at 200 ppm [2]: ≥ 80%

Ic1ccccc1CON=C1CC2CCC(C1)N2c1ncnc2sccc12 [Example 5.201]
pest or weed control at 200 ppm [1]: ≥ 80% | pest or weed control at 200 ppm [2]: ≥ 80%

Cc1ccc(C)c(CON=C2CC3CCC(C2)N3c2ncnc3sccc23)c1 [Example 5.203]
pest or weed control at 200 ppm [1]: ≥ 80% | pest or weed control at 200 ppm (Pyricularia oryzae; [3]): ≥ 60% | pest or weed control at 200 ppm [2]: ≥ 80%

Fc1cc(CON=C2CC3CCC(C2)N3c2ncnc3sccc23)cc(F)c1F [Example 5.208]
pest or weed control at 200 ppm [1]: ≥ 80% | pest or weed control at 200 ppm [2]: ≥ 80%

FC(F)(F)Oc1cccc(CON=C2CC3CCC(C2)N3c2ncnc3sccc23)c1 [Example 5.212]
pest or weed control at 200 ppm [1]: ≥ 80% | pest or weed control at 200 ppm (Pyricularia oryzae; [3]): ≥ 60% | pest or weed control at 200 ppm [2]: ≥ 80%

Fc1c(F)c(F)c(CON=C2CC3CCC(C2)N3c2ncnc3sccc23)c(F)c1F [Example 5.225]
pest or weed control at 200 ppm [1]: ≥ 80% | pest or weed control at 200 ppm [2]: ≥ 80%

FC(F)(F)Sc1ccc(CON=C2CC3CCC(C2)N3c2ncnc3sccc23)cc1 [Example 5.230]
pest or weed control at 200 ppm [1]: ≥ 80% | pest or weed control at 200 ppm [2]: ≥ 80%

Fc1ccc(C(F)(F)F)c(CON=C2CC3CCC(C2)N3c2ncnc3sccc23)c1 [Example 5.234]
pest or weed control at 200 ppm [1]: ≥ 80% | pest or weed control at 200 ppm (Pyricularia oryzae; [4]): ≥ 80% | pest or weed control at 200 ppm [2]: ≥ 80%

Cc1nc(ON=C2CC3CCC(C2)N3c2ncnc3sccc23)cc(-c2ccccc2)n1 [Example 5.236]
pest or weed control at 200 ppm (Pyricularia oryzae; [3]): ≥ 60%

FC(F)(F)Sc1cccc(CON=C2CC3CCC(C2)N3c2ncnc3sccc23)c1 [Example 5.239]
pest or weed control at 200 ppm [1]: ≥ 80% | pest or weed control at 200 ppm (Pyricularia oryzae; [4]): ≥ 80% | pest or weed control at 200 ppm [2]: ≥ 80%

CCn1nnc(-c2ccc(CON=C3CC4CCC(C3)N4c3ncnc4sccc34)cc2)n1 [Example 5.247]
pest or weed control at 200 ppm [1]: ≥ 80% | pest or weed control at 200 ppm [2]: ≥ 80%

Cc1nn(C)c2nccc(N3C4CCC3CC(=NOCc3ccc(Cl)cc3)C4)c12 [Example 5.256]
pest or weed control at 200 ppm [1]: ≥ 80% | pest or weed control at 200 ppm (Pyricularia oryzae; [3]): ≥ 60% | pest or weed control at 200 ppm [2]: ≥ 80%

Fc1cc2c(c(CON=C3CC4CCC(C3)N4c3ncnc4sccc34)c1)OCOC2 [Example 5.257]
pest or weed control at 200 ppm [1]: ≥ 80% | pest or weed control at 200 ppm [2]: ≥ 80%

OC1(Cc2ccccc2)CC2CCC(C1)N2c1ncnc2sccc12 (stereo not drawn) [Example 7.14]
pest or weed control at 200 ppm (Pyricularia oryzae; [4]): ≥ 80%

CC(C)(C)c1csc(CC2CC3CCC(C2)N3c2ncnc3sccc23)n1 (stereo not drawn) [Example 7.17]
pest or weed control at 200 ppm (Pyricularia oryzae; [3]): ≥ 60% | pest or weed control at 200 ppm (Pyricularia oryzae; [4]): ≥ 80%

FC(F)(F)C(F)(F)c1csc(CC2CC3CCC(C2)N3c2ncnc3sccc23)n1 (stereo not drawn) [Example 7.20]
pest or weed control at 200 ppm (Pyricularia oryzae; [3]): ≥ 60% | pest or weed control at 200 ppm [2]: ≥ 80%

CCc1ncnc(N2C3CCC2CC(CC(=O)Nc2ccc(Cl)cc2)C3)c1Cl (stereo not drawn) [Example 7.22]
pest or weed control at 200 ppm (Pyricularia oryzae; [3]): ≥ 60% | pest or weed control at 200 ppm (Pyricularia oryzae; [4]): ≥ 80% | pest or weed control at 200 ppm [2]: ≥ 80%

— patent US20100331348A1, “TROPANE DERIVATIVES USEFUL AS PESTICIDES” (SYNGENTA CROP PROTECTION, INC., priority 2007, published 2010)
